Experimental data reported in patent publication US7332489B2, “Methods and compositions of novel triazine compounds” (Reddy US Therapeutics, Inc., priority 2003, dated 2008).
Read-outs that look alike come from different tables or passages of the source.

Tested on: TNF-α induced IL-6
Assay: TNF-α-induced IL-6 production determined by IL-6 ELISA
Format: cell-based
Details: Homo sapiens, 24 h, class = % of control IL6 production
Experimental: Human aortic endothelial cells (HAEC, Clonetics) were cultured according to manufacturer in growth medium (Clonetics): basal medium containing human epidermal growth factor, hydrocortisone, vascular endothelial growth factor, heparin binding growth factor-B, long R3-insulin-like growth factor-1, ascorbic acid, gentamicin/amphotericin and 5% FBS. These cell were allowed to reach at least 90% confluency before subjected to experimental treatments. […] Tumor necrosis factor α was from R&D Systems.
All treatments, compound-added and controls were carried out in serum free media containing 0.2% albumin. Media from all conditions were collected and used for IL-6 ELISA.
IL-6 ELISA was carried out using human IL-6 DuoSet ELISA development kit as described by manufacturer (R&D Systems). Mouse anti-human Il-6 was used as the capture antibody (2 ug/ml) and biotinylated goat anti-human IL-6 (200 ng/ml) was used as the detection antibody. Culture media were incubated with capture antibody (in 96 well) for 2 h at room temperature. Wells were washed three times with wash buffer (0.05% tween-20 in phosphate buffered saline (PBS) pH 7.4) followed by incubation with detection antibody for 2 h at room temperature. Following three washes wells were incubated with Streptavidin-HRP for 20 min. Color development was read at 450 nm in a Microplate reader.

[1] = Table 5, first part, read-out: Inhibition of TNF-induced IL6 production
[2] = Table 5, second part, column 1, read-out: Inhibition of TNF-induced IL6, production

SMILES | activity at 10 µM [1] [%] | activity at 10 µM [2] [%]
CCN1CCCC1CNc1nc(Nc2ccc(OC)c(F)c2)nc(N2CCCC2)n1 (centres unmarked) [Compound 57, N^2-[(1-ethyl-2-pyrrolidinyl)methyl]-N^4-(3-fluoro-4-methoxyphenyl)-6-(1-pyrrolidinyl)-1,3,5-triazine-2,4-diamine] | 0 to 25 | 25 to 50
CCN1CCCC1CNc1nc(Nc2ccc(OC)c(F)c2)nc(N2CCCCCC2)n1 (centres unmarked) [Compound 58, N^2-[(1-ethyl-2-pyrrolidinyl)methyl]-N^4-(3-fluoro-4-methoxyphenyl)-N^6-hexahydro-1H-azepin-1-yl-1,3,5-triazine-2,4-diamine] | 0 to 25 | 25 to 50
CCN1CCCC1CNc1nc(Nc2ccc(OC)c(F)c2)nc(NC2CCC(C)CC2)n1 (centres unmarked) [Compound 60, N^2-[(1-ethyl-2-pyrrolidinyl)methyl]-N^4-(3-fluoro-4-methoxyphenyl)-N^6-(4-methylcyclohexyl)-1,3,5-triazine-2,4,6-triamine] | 0 to 25 | –
CCN1CCCC1CNc1nc(Nc2ccc(OC)c(F)c2)nc(N2CCN(C)CC2)n1 (centres unmarked) [Compound 62, N^2-[(1-ethyl-2-pyrrolidinyl)methyl]-N^4-(3-fluoro-4-methoxyphenyl)-6-(4-methyl-1-piperazinyl)-1,3,5-triazine-2,4-diamine] | – | 25 to 50
CCN1CCCC1CNc1nc(Nc2ccc(OC)c(F)c2)nc(N2CCN(C(C)=O)CC2)n1 (centres unmarked) [Compound 63, 6-(4-acetyl-1-piperazinyl)-N^2-[(1-ethyl-2-pyrrolidinyl)methyl]-N^4-(3-fluoro-4-methoxyphenyl)-1,3,5-triazine-2,4-diamine] | 25 to 50 | –
CCOC(=O)N1CCN(c2nc(NCC3CCCN3CC)nc(Nc3ccc(OC)c(F)c3)n2)CC1 (centres unmarked) [Compound 64, Ethyl 4-{4-{[(1-ethyl-2-pyrrolidinyl)methyl]amino}-N^6-[(3-fluoro-4-methoxyphenyl)amino]-1,3,5-triazin-2-yl}-1-piperazinecarboxylate] | 25 to 50 | –
CCN1CCCC1CNc1nc(NCC2CCCCC2)nc(Nc2ccc(OC)c(F)c2)n1 (centres unmarked) [Compound 65, N^2-(cyclohexylmethyl)-N^4-[(1-ethyl-2-pyrrolidinyl)methyl]-N^6-(3-fluoro-4-methoxyphenyl)-1,3,5-triazine-2,4,6-triamine] | 0 to 25 | 25 to 50
CCN1CCCC1CNc1nc(NCc2ccco2)nc(Nc2ccc(OC)c(F)c2)n1 (centres unmarked) [Compound 66, N^2-[(1-ethyl-2-pyrrolidinyl)methyl]-N^4-(3-fluoro-4-methoxyphenyl)-N^6-(2-furylmethyl)-1,3,5-triazine-2,4,6-triamine] | 0 to 25 | 0 to 25
CCN1CCCC1CNc1nc(NCC(F)(F)F)nc(Nc2ccc(OC)c(F)c2)n1 (centres unmarked) [Compound 67, N^2-[(1-ethyl-2-pyrrolidinyl)methyl]-N^4-(3-fluoro-4-methoxyphenyl)-N^6-(2,2,2-trifluoroethyl)-1,3,5-triazine-2,4,6-triamine] | – | 25 to 50
CCN1CCCC1CNc1nc(NCCN(C)C)nc(Nc2ccc(OC)c(F)c2)n1 (centres unmarked) [Compound 68, N^2-[2-(dimethylamino)ethyl]-N^4-[(1-ethyl-2-pyrrolidinyl)methyl]-N^6-(3-fluoro-4-methoxyphenyl)-1,3,5-triazine-2,4,6-triamine] | 0 to 25 | 25 to 50
CCN1CCCC1CNc1nc(Nc2ccc(OC)c(F)c2)nc(N2CCN(CC(=O)N3CCCC3)CC2)n1 (centres unmarked) [Compound 69, N^2-[(1-ethyl-2-pyrrolidinyl)methyl]-N^4-(3-fluoro-4-methoxyphenyl)-N^6-{4-[2-oxo-2-(1-pyrrolidinyl)ethyl]-1-piperazinyl}-1,3,5-triazine-2,4-diamine] | 0 to 25 | 0 to 25
CCN1CCCC1CNc1nc(NCC2CCCN2CC)nc(Nc2ccc(OC)c(F)c2)n1 (centres unmarked) [Compound 70, N^2,N^4-bis[(1-ethyl-2-pyrrolidinyl)methyl]-N^6-(3-fluoro-4-methoxyphenyl)-1,3,5-triazine-2,4,6-triamine] | 0 to 25 | 25 to 50
CCN1CCCC1CNc1nc(NCCN2CCCCC2)nc(Nc2ccc(OC)c(F)c2)n1 (centres unmarked) [Compound 71, N^2-[(1-ethyl-2-pyrrolidinyl)methyl]-N^4-(3-fluoro-4-methoxyphenyl)-N^6-[2-(1-piperidinyl)ethyl]-1,3,5-triazine-2,4,6-triamine] | 0 to 25 | 25 to 50
CCN1CCCC1CNc1nc(Nc2ccc(OC)c(F)c2)nc(N2CCN(Cc3ccc4c(c3)OCO4)CC2)n1 (centres unmarked) [Compound 72, N^6-[4-(1,3-benzodioxol-5-ylmethyl)-1-piperazinyl]-N^2-[(1-ethyl-2-pyrrolidinyl)methyl]-N^4-(3-fluoro-4-methoxyphenyl)-1,3,5-triazine-2,4-diamine] | 0 to 25 | 25 to 50
CCN1CCCC1CNc1nc(Nc2ccc(OC)c(F)c2)nc(N2CCN(c3ccccn3)CC2)n1 (centres unmarked) [Compound 73, N^2-[(1-ethyl-2-pyrrolidinyl)methyl]-N^4-(3-fluoro-4-methoxyphenyl)-N^6-[4-(2-pyridinyl)-1-piperazinyl]-1,3,5-triazine-2,4-diamine] | 0 to 25 | 0 to 25
CCN1CCCC1CNc1nc(NCCCN2CCCC2=O)nc(Nc2ccc(OC)c(F)c2)n1 (centres unmarked) [Compound 74, 1-[3-({4-{[(1-ethyl-2-pyrrolidinyl)methyl]amino}-6-[(3-fluoro-4-methoxyphenyl)amino]-1,3,5-triazin-2-yl}amino)propyl]-2-pyrrolidinone] | – | 25 to 50
CCN1CCCC1CNc1nc(NCCCn2ccnc2)nc(Nc2ccc(OC)c(F)c2)n1 (centres unmarked) [Compound 75, N^2-[(1-ethyl-2-pyrrolidinyl)methyl]-N^4-(3-fluoro-4-methoxyphenyl)-N^6-[3-(1H-imidazol-1-yl)propyl]-1,3,5-triazine-2,4,6-triamine] | 25 to 50 | 25 to 50
CCNc1nc(Nc2ccc(OC)c(F)c2)nc(NC2CCCCCC2)n1 [Compound 76, N^2-cycloheptyl-N^4-ethyl-N^6-(3-fluoro-4-methoxyphenyl)-1,3,5-triazine-2,4,6-triamine] | 0 to 25 | –
COc1ccc(Nc2nc(NC3CCCCCC3)nc(NC(C)(C)C)n2)cc1F [Compound 77, N^2-(tert-butyl)-N^4-cycloheptyl-N^6-(3-fluoro-4-methoxyphenyl)-1,3,5-triazine-2,4,6-triamine] | 0 to 25 | –
COc1ccc(Nc2nc(NCc3ccccc3)nc(NC3CCCCCC3)n2)cc1F [Compound 78, N^2-benzyl-N^4-cycloheptyl-N^6-(3-fluoro-4-methoxyphenyl)-1,3,5-triazine-2,4,6-triamine] | 25 to 50 | –
COc1ccc(Nc2nc(NC3CCCCCC3)nc(N3CCCC3)n2)cc1F [Compound 82, N^2-cycloheptyl-N^4-(3-fluoro-4-methoxyphenyl)-6-(1-pyrrolidinyl)-1,3,5-triazine-2,4-diamine] | 25 to 50 | –
COc1ccc(Nc2nc(NC3CCCCCC3)nc(N3CCCCCC3)n2)cc1F [Compound 83, N^2-cycloheptyl-N^4-(3-fluoro-4-methoxyphenyl)-6-hexahydro-1H-azepin-1-yl-1,3,5-triazine-2,4-diamine] | 0 to 25 | –
COc1ccc(Nc2nc(NC3CCCCCC3)nc(N3CCCC4CCCCC43)n2)cc1F (centres unmarked) [Compound 84, N^2-cycloheptyl-N^4-(3-fluoro-4-methoxyphenyl)-6-octahydro-1(2H)-quinolinyl-1,3,5-triazine-2,4-diamine] | 25 to 50 | –
COc1ccc(Nc2nc(NC3CCCCCC3)nc(NC3CCC(C)CC3)n2)cc1F (centres unmarked) [Compound 85, N^2-cycloheptyl-N^4-(3-fluoro-4-methoxyphenyl)-N^6-(4-methylcyclohexyl)-1,3,5-triazine-2,4,6-triamine] | 25 to 50 | –
COC[C@@H]1CCCN1c1nc(Nc2ccc(OC)c(F)c2)nc(NC2CCCCCC2)n1 [Compound 86, N^2-cycloheptyl-N^4-(3-fluoro-4-methoxyphenyl)-6-[(2S)-2-(methoxymethyl)-1-pyrrolidinyl]-1,3,5-triazine-2,4-diamine] | 0 to 25 | –
COc1ccc(Nc2nc(NC3CCCCCC3)nc(N3CCN(C)CC3)n2)cc1F [Compound 87, N^2-cycloheptyl-N^4-(3-fluoro-4-methoxyphenyl)-6-(4-methyl-1-piperazinyl)-1,3,5-triazine-2,4-diamine] | – | 0 to 25
COc1ccc(Nc2nc(NC3CCCCCC3)nc(N3CCN(C(C)=O)CC3)n2)cc1F [Compound 88, 6-(4-acetyl-1-piperazinyl)-N^2-cycloheptyl-N^4-(3-fluoro-4-methoxyphenyl)-1,3,5-triazine-2,4-diamine] | 0 to 25 | –
COc1ccc(Nc2nc(NCc3ccco3)nc(NC3CCCCCC3)n2)cc1F [Compound 91, N^2-cycloheptyl-N^4-(3-fluoro-4-methoxyphenyl)-N^6-(2-furanylmethyl)-1,3,5-triazine-2,4,6-triamine] | 25 to 50 | –
COc1ccc(Nc2nc(NC3CCCCCC3)nc(N3CCN(CC(=O)N4CCCC4)CC3)n2)cc1F [Compound 94, N^2-cycloheptyl-N^4-(3-fluoro-4-methoxyphenyl)-6-{4-[2-oxo-(1-pyrrolidinyl)ethyl]-1-piperazinyl}-1,3,5-triazine-2,4-diamine] | 25 to 50 | 0 to 25
